Values of other authors in patent publication US10336750B2, “Composition and methods for the treatment of CaMKK2-mediated disorders” (Duke University, priority 2015, dated 2019).

Tested on: neovascular remodeling (NVR) in experimental laser-induced CNV
Conditions: aged (16 month-old) mice, systemic depletion of macrophages, compared to sham control

O=P(O)(O)C(Cl)(Cl)P(=O)(O)O [clodronate]
NVR phenotype, lesion size and fibrosis (choroidal flatmounts by FITC-dextran): abrogation of the NVR phenotype, resulting in smaller lesions with less fibrosis
